Reference: patent publication US6541463B1, “Inhibitors of type 5 and type 3 17β-hydroxysteroid dehydrogenase and methods for their use” (Endorecherche, Inc., priority 1998, dated 2003)

Legend:
[1] = tested on: progesterone receptor; assay: Progesterone receptor assay: inhibition of [3H]R5020 binding, uterine cytosol; set-up: species or system rat
Description: The manner in which the percentage of inhibition is determined is described in “Other Tests; E-Progesterone Receptor Assay”. Lower numbers are desirable.
[17α-methyl-^3H]-promegestone (R5020) (84 Ci/mmol) and the corresponding unlabeled compound were purchased from New England Nuclear (Lachine, Québec, Canada). All other chemicals were of analytical grade.
Stock solutions of the unlabeled steroids were kept at 4° C. in ethanol. The desired steroid solutions were then prepared by appropriate dilution in buffer B (10 mM Tris-HCl, 1.5 mM EDTA, 10 mM α-monothioglycerol, pH 7.4) containing 30% ethanol.
Female Sprague-Dawley rats weighing 200-300 g were obtained from Charles-River Inc. (St-Constant, Québec, Canada). The rats were gonadectomized under general anesthesia (Isoflurane) and killed by cervical dislocation 24 hours later. The uteri are rapidly removed, dissected free from adhering tissue and frozen on dry-ice. Tissues were kept at −80° C. until use.
All procedures were performed at 4° C. Tissues were pulverized frozen in dry ice with a Thermovac pulverizer. The samples were then homogenized in 10 vol (w/v) of buffer A (25 mM Tris-HCl, 1.5 mM EDTA, 10 mM α-monothioglycerol, 10% glycerol, 10 mM sodium molybdate, pH 7.4) using a Polytron PT-10 homogenizer (Brinkmann Instruments, Canada) at a setting of 5 for two periods of 10 sec, with intervals of 10 sec for cooling. The homogenate was then centrifuged at 105,000×g for 90 min. The supernatant was used immediately for assay.
Progesterone binding was measured using the dextran-coated charcoal adsorption technique. […] Each concentration was done in triplicate. Assay was ended with 300 μl of DCC (1% Norit A and 0.1% Dextran T-70 in Buffer B). After 10 min of incubation, tubes were centrifuged at 2,000×g for 10 min. and decanted in vials with 6 ml of BCS liquid scintillation (New England Nuclear, Dupont). The radioactivity was measured in a Beckman counter at a counting efficiency of 35%.

[2] = molecular target: T1, androgen receptor (Rattus norvegicus, UniProt P15207); assay: Androgen receptor (AR) assay: inhibition of [3H]R1881 binding, prostate cytosol
T1 construct: from tissue; host or cells: ventral prostate cytosol of gonadectomized male Sprague-Dawley rats
T1 sequence (P15207 1-902): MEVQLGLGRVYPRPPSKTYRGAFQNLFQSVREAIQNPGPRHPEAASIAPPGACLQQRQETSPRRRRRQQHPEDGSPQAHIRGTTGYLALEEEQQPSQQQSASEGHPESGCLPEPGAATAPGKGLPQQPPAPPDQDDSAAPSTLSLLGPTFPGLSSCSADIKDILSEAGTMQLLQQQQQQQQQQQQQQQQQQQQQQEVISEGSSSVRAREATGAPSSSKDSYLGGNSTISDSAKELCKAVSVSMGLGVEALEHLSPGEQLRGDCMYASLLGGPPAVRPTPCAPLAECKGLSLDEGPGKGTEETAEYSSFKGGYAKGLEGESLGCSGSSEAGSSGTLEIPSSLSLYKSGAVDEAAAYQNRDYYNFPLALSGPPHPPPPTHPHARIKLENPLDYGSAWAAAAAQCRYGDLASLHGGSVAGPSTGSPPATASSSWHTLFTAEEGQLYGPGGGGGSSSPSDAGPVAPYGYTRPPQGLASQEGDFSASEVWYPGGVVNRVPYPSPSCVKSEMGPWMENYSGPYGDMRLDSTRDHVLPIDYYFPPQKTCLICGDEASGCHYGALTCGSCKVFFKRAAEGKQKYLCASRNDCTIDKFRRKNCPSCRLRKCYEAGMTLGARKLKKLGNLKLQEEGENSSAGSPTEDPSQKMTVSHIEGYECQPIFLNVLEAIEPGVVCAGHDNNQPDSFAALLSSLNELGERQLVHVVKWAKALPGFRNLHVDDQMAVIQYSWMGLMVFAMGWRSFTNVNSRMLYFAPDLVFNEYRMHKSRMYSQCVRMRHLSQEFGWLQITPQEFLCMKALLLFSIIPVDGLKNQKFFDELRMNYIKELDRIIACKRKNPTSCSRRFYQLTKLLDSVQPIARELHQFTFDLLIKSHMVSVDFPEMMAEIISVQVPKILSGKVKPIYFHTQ
Description: The manner in which the percentage of inhibition is determined is described in “Other Tests; D-Androgen Receptor (AR) Assays”. Lower numbers are desirable.
Male Sprague-Dawley rats (Crl: CD(SD)Br) weighing 200-300 g were obtained from Charles-River Inc. (St-Constant, Québec, Canada). The rats were gonadectomized under general anesthesia (Isoflurane) and killed by cervical dislocation 24 hours later. The ventral prostates were rapidly removed, dissected free from adhering tissue and frozen on dry-ice. Prostates were kept at −80° C. until assay.
All subsequent steps were performed at 0-4° C. Prostates were homogenized in 5 vol (wt/vol) of buffer A (25 mM Tris-HCl, 1.5 mM EDTA disodium salt, 10 mM α-monothioglycerol, 10% glycerol, and 10 mM sodium molybdate, pH 7.4), using a Polytron PT-10 homogenizer (Brinkman Instruments, Canada) at a setting of 5 for three periods of 10 sec, with intervals of 10 sec for cooling. The homogenate was then centrifuged at 105,000×g for 60 min in a Beckman L5-65 ultracentrifuge (Fullerton, Calif.).
Androgen binding was measured using the hydroxylapatite assay (HAP). In brief, the radioactive steroid [^3H]R1881 solubilized in ethanol was diluted into buffer A. Aliquots of prostate cytosol preparation (0.1 ml) were then incubated with 8 nM [^3H]R1881 (0.1 ml, ˜200,000 cpm) in the presence or absence of the indicated concentrations of unlabeled compounds (0.1 ml, prepared in buffer A containing 10% ethanol) for 16-18 h at 0-4° C. […] Unbound steroids were separated by incubation for 40 min at 0-4° C. with 0.3 ml HAP prepared in buffer P (50 mM, Tris-HCl, 10 mM KH2PO4, pH 7.4) as follows: 10 g HAP were washed with buffer P until the supernatant reached a pH of 7.4 and then following centrifugation and decantation of the supernatant, 37.5 ml of buffer P were added. After incubation with HAP and 10 minutes of centrifugation at 1,000×g, the pellet was washed 3 times with 1 ml buffer P. Thereafter, the radioactivity was extracted from the pellet by incubation at room temperature for 60 minutes with 1 ml EtOH. After centrifugation, the supernatant was decanted into a scintillation vial and the pellet was extracted again with ethanol.

| SMILES | % Inhibition Progesterone Receptor E^−6 ([1]; Table 4′, E^−6) [%] | % Inhibition Progesterone Receptor E^−8 ([1]; Table 4′, E^−8) [%] | inhibition at 1 µM ([2]; Table 4′, E^−6) [%] | inhibition at 0.01 µM ([2]; Table 4′, E^−8) [%] | also measured |
| --- | --- | --- | --- | --- | --- |
| CC1(C)CC[C@@]2(CCC3C4CCc5cc(C(=O)O)ccc5C4CC[C@@]32C)OC1=O (stereo partly drawn) [EM-1401, 3-Carboxy-1,3,5(10)-estratrien-17(R)-spiro-2′-(5′,5′-dimethyl-6′-oxo)tetrahydropyran] | 0 | 0 | 0 | 0 | – |
| COc1ccc(CC(=O)O[C@]2(C(C)=O)CCC3C4C=C(C)C5=CC(=O)C=C[C@]5(C)C4CC[C@@]32C)cc1 (stereo partly drawn) [EM-1291] | – | – | – | – | % Inhibition Progesterone Receptor ([1]; E^−6): 33%; % Inhibition Progesterone Receptor ([1]; E^−8): 0%; % Inhibition Androgen Receptor ([2]; E^−6): 0%; % Inhibition Androgen Receptor ([2]; E^−8): 0% |
| CCC[C@@H]1CC2C3C=CC4=CC(=O)CC[C@]4(C)C3CC[C@]2(C)C1=O (stereo partly drawn) [EM-1097] | – | – | – | – | % Inhibition Progesterone Receptor E^−6 ([1]; E^−6): 0%; % Inhibition Progesterone Receptor E^−8 ([1]; E^−8): 2%; inhibition at 1 µM ([2]; E^−6): 5%; inhibition at 0.01 µM ([2]; E^−8): 0% |
| CC12CCC3c4ccc(F)cc4CCC3C1CCC21CCCC(=O)O1 (stereo not drawn) [EM-1170-CS] | 24 | 1 | 1 | 0 | – |
| CC1(C)CCC2(CCC3C4CCc5cc(OS(C)(=O)=O)ccc5C4CCC32C)OC1=O (stereo not drawn) [EM-1365-CS] | 2 | 2 | 0 | 0 | – |
| C[C@]12CCC3c4cc([N+](=O)[O-])c(O)cc4CCC3C1CC[C@@]21CCCC(=O)O1 (stereo partly drawn) [EM-1124, 2-Nitro-1,3,5(10)-estraetriene-3-ol-17(R)-spiro-2′-(6′-oxo)tetrahydropyran] | 20 | 1 | 7 | 1 | – |
| COc1c(Br)cc2c(c1Br)CCC1C2CCC2(C)C1CCC21CCC(C)(C)C(=O)O1 (stereo not drawn) [EM-1385-CS] | 2 | 2 | 0 | 0 | – |
| COc1ccc2c(c1)C(=O)CC1C2CC[C@@]2(C)C1CC[C@@]21CCC(C)(C)C(=O)O1 (stereo partly drawn) [EM-1394] | 4 | 2 | 0 | 0 | – |
| CC12C=CC(=O)C=C1C=CC1C2CCC2(C)C(=O)C3(CCCCC3)CC12 (stereo not drawn) [CS-204] | – | – | – | – | % Inhibition Progesterone Receptor E^−6 ([1]; E^−6): 2%; % Inhibition Progesterone Receptor E^−8 ([1]; E^−8): 0%; inhibition at 1 µM ([2]; E^−6): 5%; inhibition at 0.01 µM ([2]; E^−8): 0% |
| CC(C)C[C@@H]1CC2C3C=CC4=CC(=O)CC[C@]4(C)C3CC[C@]2(C)C1=O (stereo partly drawn) [EM-1273-CS] | – | – | – | – | % Inhibition Progesterone Receptor E^−6 ([1]; E^−6): 0%; % Inhibition Progesterone Receptor E^−8 ([1]; E^−8): 0%; inhibition at 1 µM ([2]; E^−6): 0%; inhibition at 0.01 µM ([2]; E^−8): 0% |
| CC1CCC2(CCC3C4CCc5ccccc5C4CCC32C)OC1=O (stereo not drawn) [EM-1025] | 4 | 0 | 0 | 0 | – |
| CC1(C)CCC2(CCC3C4CCc5c(cc(Cl)c(O)c5Cl)C4CCC32C)OC1=O (stereo not drawn) [EM-1391-CS] | 1 | 1 | 0 | 0 | – |
| CCOc1ccc2c(c1)CCC1C2CC[C@@]2(C)C1CC[C@@]21CCC(C)(C)C(=O)O1 (stereo partly drawn) [EM-1369, 3-Ethoxy-1,3,5(10)-estratrien-17(R)-spiro-2′-(5′,5′-dimethyl-6′-oxo)-tetrahydropyran] | 3 | 1 | 1 | 0 | – |
| C[C@]12CCC3c4ccc(O)cc4CCC3C1CC[C@@]21CCCC(=O)O1 (stereo partly drawn) [EM-919, 1,3,5(10)-estratrien-3-ol-17(R)-spiro-2′(6′-oxo)tetrahydropyran] | – | – | – | – | % Inhibition Progesterone Receptor *E^−5 ([1]; Table 4′, starred values, E^−5): 68* %; % Inhibition Progesterone Receptor *E^−7 ([1]; Table 4′, starred values, E^−7): 8* %; % Inhibition Androgen Receptor *E^−5 ([2]; Table 4′, starred values, E^−5): 6* %; % Inhibition Androgen Receptor *E^−7 ([2]; Table 4′, starred values, E^−7): 0* % |
| CCC[C@]1(F)CC2C3C=CC4=CC(=O)CC[C@]4(C)C3CC[C@]2(C)C1=O (stereo partly drawn) [EM-1183] | – | – | – | – | % Inhibition Progesterone Receptor E^−6 ([1]; E^−6): 45%; % Inhibition Progesterone Receptor E^−8 ([1]; E^−8): 9%; inhibition at 1 µM ([2]; E^−6): 1%; inhibition at 0.01 µM ([2]; E^−8): 0% |
| COCCOc1ccc2c(c1)C(=O)CC1C2CCC2(C)C1CCC21CCC(C)(C)C(=O)O1 (stereo not drawn) [EM-1408-CS] | 0 | 0 | 0 | 0 | – |
| CC1(C)CCC2(CCC3C4CCc5c(cc(Cl)c(OS(C)(=O)=O)c5Cl)C4CCC32C)OC1=O (stereo not drawn) [EM-1392-CS] | 2 | 2 | 0 | 0 | – |
| CC1(C)CC[C@@]2(CCC3C4CCc5cc(F)ccc5C4CC[C@@]32C)OC1=O (stereo partly drawn) [EM-1157-CS] | 5 | 2 | 0 | 0 | – |
| CCCCN(C)C(=O)[C@@]1(OC(C)=O)CCC2C3C=C(C)C4=CC(=O)CC[C@]4(C)C3CC[C@@]21C (stereo partly drawn) [EM-1165] | – | – | – | – | % Inhibition Progesterone Receptor ([1]; E^−6): 7%; % Inhibition Progesterone Receptor ([1]; E^−8): 0%; % Inhibition Androgen Receptor ([2]; E^−6): 1%; % Inhibition Androgen Receptor ([2]; E^−8): 0% |
| CC(=O)[C@@]1(OC(=O)CCCCF)CCC2C3C=C(C)C4=CC(=O)CC[C@]4(C)C3CC[C@@]21C (stereo partly drawn) [EM-1195-CS] | – | – | – | – | % Inhibition Progesterone Receptor ([1]; E^−6): 70%; % Inhibition Progesterone Receptor ([1]; E^−8): 0%; % Inhibition Androgen Receptor ([2]; E^−6): 62%; % Inhibition Androgen Receptor ([2]; E^−8): 1% |
| CSCCOc1ccc2c(c1)CCC1C2CCC2(C)C1CCC21CCCC(=O)O1 [CS-242, 3-Methylthioethyloxy-1,3,5(10)-estratrien-17(R)-spiro-2′-(6′-oxo) Tetrahydropyran] | 0 | 0 | 0 | 0 | – |
